This is an account of results in US6338963B1, “Use of carbon monoxide dependent guanylyl cyclase modifiers to stimulate neuritogenesis” (NeoTherapeutics, Inc., priority 1994, dated 2002).

Assay [1] concerns C57BL/6 mice. The assay can be described thus: Ethanol-induced working memory deficit (win-shift). To be noted: Ethanol 0.5 gm/kg i.p. ten minutes prior to testing. It counts as in vivo. The protocol: Six month old male C57BL/6 mice were evaluated in the win-shift model in combination with treatment with ethanol, a non-specific memory suppressant, and AIT-082. Subjects were treated with saline (control) or AIT-082 (30 mg/kg. i.p.) 1 hour prior to testing. Ethanol was administered at a dose of 0.5 gm/kg i.p. ten minutes prior to testing.

The subject of assay [2] is PC12 cells. The assay can be described thus: Neuritogenesis in PC12 cells. The class given is cell-based, rat. The protocol: Much of the work performed in the characterization of the compounds of the present invention involved the use of PC12 cells. These cells are derived from a rat pheochromocytoma and when grown in the presence of NGF, extend neurites, cease cell division and assume many characteristics of sympathetic neurons. When cultured in the absence of nerve growth factor (NGF), few PC12 cells have neurites greater than one cell diameter. Addition of saturating concentrations of NGF for 48 hours stimulates neurite outgrowth in about 20-35% of the cells. Because they constitute a homogeneous population of neuronal-like cells, without contaminating astroglia type cells, it is possible to study the direct effects of the purine based compounds on neurite outgrowth in these cells.
Cells cultured in RPMI 1640 with 1.5% horse serum and 1.5% fetal bovine serum were re-plated onto poly-ornithine coated 24-well culture plates (2.5×10^4 cells per well). AIT-082 and NGF were added to the various cultures immediately upon plating. After 48 hours, medium was removed and the cells irnmediately fixed in 10% formalin and PBS for 10 minutes. Cells and neurites were counted within 2 days of fixation.
A neurite was defined as a process extending from the cell at least 1 cell body diameter in length and displaying a growth cone at its tip. For each treatment, 2 representative microscope fields were counted from each of 6 sister cultures receiving identical treatments. The total number of cells counted per well (approximately 100 cells) and the total number of cells containing neurites in each well were used to determine fraction of neurite-bearing cells. The mean values (±SEM) were then determined for each of the treatments. To facilitate comparison neurite outgrowth was expressed relative to the proportion of cells bearing neurites in the presence of NGF alone (NGF=100%). The effects of compounds with and without NGF were compared by analysis of variance (ANOVA) followed by Tukey's test for significance.
The results are shown in FIG. 3 where the curve represents different levels of AIT-082 plus saturating concentrations (40 ng/ml) NGF. The center horizontal line represents control values for cells cultured in the presence of 40 ng/ml NGF alone. Upper and lower horizontal lines are indicative of confidence limits of NGF alone as determined using standard statistical methods.

In assay [3] the test system is cGMP levels in PC12 cells. Description: cGMP levels in PC12 cells (radioimmunoassay). The class given is cell-based, rat. Conditions: NGF-primed PC12 cells. The protocol: Initially, PC-12 cells were primed with 40 ng/ml NGF for 3 days in low serum medium (1.5% horse serum+5% fetal calf serum). Cells were seeded onto assay plates in low serum medium containing 40 ng/ml NGF and incubated for 1 hour. The medium was changed to low arginine medium (80 μM) with no serum and NGF and papaverine ([…]) where indicated. Test compounds were added for the indicated time and the reaction was stopped by adding 5% TCA containing 10,000 dpm of ^3H-cGMP. cGMP was assayed by the radioimmunoassay method of Maurice (Mol. Pharmacol. 37: 671-681, 1990). TCA was purified by adding powdered charcoal (5 g) and filtering the mixture through Whatman #1 paper. This removed contaminants in the TCA that otherwise interfere with the radioimmunoassay (RIA) of cGMP.
It was necessary to purify the cGMP from cAMP and other contaminants before radioimmunoassay since these other materials can interfere with the assay. Briefly, the TCA solution was applied to Dowex columns (50W-8X, 200-400 mesh) and eluted. A neutral alumina column was then placed under each Dowex column. The cGMP was eluted from the Dowex columns into neutral alumina columns by adding 4 mL of 0.05 M HCl to each Dowex column. The neutral alumina columns were then sequentially rinsed with 2 ml of HCl, 4 mL water and finally with 0.2 M sodium acetate (pH 6.2). The cGMP collected for the RIA eluted in 1 ML of sodium acetate with a recovery between 50-65%. The cGMP was assayed using a Dupont RIA kit.

The test system of assay [4] is neocortical astrocytes. The assay can be described thus: NGF-like immunoreactivity in astrocyte culture medium (ELISA). The class given is cell-based, mouse. To be noted: astrocytes incubated with different concentrations. The protocol: Astrocytes appear to proliferate in response to extracellular guanosine or guanosine triphosphate (GTP). GTP or guanosine may also stimulate the release of trophic factors from cultures of neocortical astrocytes from neonatal mouse brains. Astrocytes were incubated with different concentrations of guanosine or GTP respectively. Neurotrophin imunoreactivity in the culture medium from treated cells was then measured by ELISA.
Briefly, 96 well Falcon plates (Fisher) were coated with […] of sheep mono-specific anti-NGF IgG (affinity column purified) contained in 0.1M sodium carbonate buffer pH 9.6. After an overnight incubation at 4° C. blocking solution (PBS with 10% goat serum) was added to remove excess antibody. After a four hour incubation at room temperature the plates were washed three times with PBS containing 0.05% Tween 20. The conditioned media and standard 2.5S HPLC purified NGF were added and incubated overnight. The next day plates were washed 3 times with PBS-0.05% Tween 20. The secondary antibody, rabbit mono-specific anti-NGF IgG conjugated with β-galactosidase (Pierce-SPDP method) (1:500 dilution) was added. The plates were incubated overnight at 4° C. The next day the plates were washed 3 times with PBS-0.05% Tween 20. […]
The ELISA assay detected neurotrophins NGF and NT-3 with ahnost equal affinity and BDNF with 100 times less affinity. […]

In assay [5] the test system is rat cultured astrocytes. Description: Release of radioactively labeled adenine-based purines from rat cultured astrocytes. It counts as cell-based. To be noted: 300 μM, 1 hour. As for the experimental part: The experiments were carried out on cultured astrocytes of rat hippocampus at the fourth day in vitro (DIV), obtained from primary cultures replated in 35 mm Petri dishes ([…] cells/dish) and preloaded with [^3H]-adenosine (5×10^−8 M for a specific activity of 20.0 Ci/mM) for 30 minutes at 37° C.
The effect of AIT-082 on the proportional release of radioactively labeled adenine nucleosides and nucleotides from rat cultured astrocytes is shown in FIGS. 29A and 29B. Culture medium collected during the first hour of the release was analyzed by high performance liquid chromatography (HPLC) and the radioactivity associated with the different adenine compounds was measured and expressed as a percentage of the total radioactivity released. The results are shown for ATP, ADP, and AMP in FIG. 29A, and for adenosine, inosine, and hypoxanthine in FIG. 29B.

Assay [6] relates to rat cultured astrocytes. Described as above. The class given is cell-based. Conditions: 300 μM.
The test system of assay [7] is mice. The assay can be described thus: T-maze memory test with atropine co-administration. It counts as in vivo. To be noted: AIT-082 30 mg/kg i.p. 2 hr prior; atropine 0.5 mg/kg i.p. 1/2 hour prior to testing, day 3. As for the experimental part:
To elucidate the mechanisms by which AIT-082 improves memory, attempts were made to block its actions by co-administration of the short-acting cholinergic antagonist atropine to mice and subjecting them to simple learning tests. Atropine reportedly has the ability to block the effects of physostigmine and THA. Mice were injected with AIT-082 (30 mg/kg) 2 hr prior to testing on days 1 through 4. Atropine (0.5 mg/kg) was injected ½ hour prior to testing or 1.5 hours after AIT-082 on day 3 only. All injections were i.p. After a reference run to determine where the reward was placed in a T-maze, the mice were retested to determine if they could remember the location of the reward. The percentage of correct responses is graphically represented in FIG. 2.

In the case of `CCO` [Ethanol, ethanol, reference compound], in assay [1], the “Correct trials (mean number of correct responses per 10 trials ± S.E.)” value amounted to 6.5 ± 26.

As for `Nc1nc2c(ncn2[C@@H]2O[C@H](COP(=O)(O)OP(=O)(O)OP(=O)(O)O)[C@@H](O)[C@H]2O)c(=O)[nH]1` [GTP, guanosine triphosphate, reference compound], the “neurite outgrowth in the absence of NGF” value in assay [2] (compound alone) is listed as “elicited neurite outgrowth on its own”. For the same compound, the “enhancement of NGF-induced neurite outgrowth” value in assay [2] (in the presence of NGF, 48 hours) was “did enhance neuritogenesis in the presence of NGF”. Also, the “cGMP in PC12 cells” value in assay [3] is recorded as “did not increase levels of cGMP”. For the same compound, the “NGF-like immunoreactivity in the culture medium” value in assay [4] was “increased the amount of NGF-like immunoreactivity”. In assay [5], the “ADP, proportional release” value was “(17.8 ± 2.6) percentage of the total [^3H]-purines released”; the “Adenosine, proportional release” value is “(4.0 ± 0.5) percentage of the total [^3H]-purines released”; the “Inosine, proportional release” value is “(14.0 ± 1.7) percentage of the total [^3H]-purines released”. Besides, in assay [6] (1 hour), the “ADP, radioactivity released in the culture medium” value is 2.10 ± 0.31 cpm × 10^3; the “AMP, proportional release” value was “(23.5 ± 2.4) percentage of the total [^3H]-purines released”; the “AMP, radioactivity released in the culture medium” value is reported as 2.76 ± 0.28 cpm × 10^3; the “ATP, proportional release” value is “(10.9 ± 1.1) percentage of the total [^3H]-purines released”. Further, in assay [6] (1 hour), the “ATP, radioactivity released in the culture medium” value is recorded as 1.28 ± 0.13 cpm × 10^3; the “Adenosine, radioactivity released in the culture medium” value came to 0.47 ± 0.06 cpm × 10^3; the “Hypoxanthine, proportional release” value is “(18.4 ± 2.6) percentage of the total [^3H]-purines released”; the “Hypoxanthine, radioactivity released in the culture medium” value is listed as 2.20 ± 0.31 cpm × 10^3. The “Inosine, radioactivity released in the culture medium” value in assay [6] (1 hour) came out at 1.65 ± 0.2 cpm × 10^3. Besides, in assay [6] (3 hours), the “ADP, proportional release” value is “(8.6 ± 0.7) percentage of the total [^3H]-purines released”; the “ADP, radioactivity released in the culture medium” value is given as 1.05 ± 0.09 cpm × 10^3; the “AMP, proportional release” value was “(40.0 ± 3.9) percentage of the total [^3H]-purines released”; the “AMP, radioactivity released in the culture medium” value amounted to 4.32 ± 0.48 cpm × 10^3. Moreover, in assay [6] (3 hours), the “ATP, proportional release” value was “(4.4 ± 0.4) percentage of the total [^3H]-purines released”; the “ATP, radioactivity released in the culture medium” value is 0.54 ± 0.05 cpm × 10^3; the “Adenosine, proportional release” value is “(2.5 ± 0.2) percentage of the total [^3H]-purines released”; the “Adenosine, radioactivity released in the culture medium” value came out at 0.31 ± 0.02 cpm × 10^3. In addition, in assay [6] (3 hours), the “Hypoxanthine, proportional release” value was “(25.0 ± 3.7) percentage of the total [^3H]-purines released”; the “Hypoxanthine, radioactivity released in the culture medium” value is 3.11 ± 0.45 cpm × 10^3; the “Inosine, proportional release” value is “(9.7 ± 1.2) percentage of the total [^3H]-purines released”; the “Inosine, radioactivity released in the culture medium” value came to 1.19 ± 0.19 cpm × 10^3.

As for `CN1[C@@H]2CC[C@H]1C[C@@H](OC(=O)C(CO)c1ccccc1)C2` (stereo partly drawn) [atropine], the “effect of atropine on memory enhancement by AIT-082” value in assay [7] is on record as “blocked the memory enhancing activity of AIT-082”.
